From ChEMBL document CHEMBL3120092, “Discovery of GS-9669, a thumb site II non-nucleoside inhibitor of NS5B for the treatment of genotype 1 chronic hepatitis C infection” (J Med Chem, 2014)

How the values were obtained:
Hepatitis C virus [1] = test: Antiviral activity against Hepatitis C virus H77 genotype 1a infected in human HuH7 cells assessed as observed antiviral potency after 72 hrs by luciferase reporter gene assay; type: functional, organism-based, Hepacivirus hominis; settings: genotype 1a H77, Huh-7, 72 h
Hepatitis C virus [2] = test: Antiviral activity against Hepatitis C virus H77 genotype 1a infected in human HuH7 cells assessed as intrinsic antiviral potency after 72 hrs by luciferase reporter gene assay; type: functional, organism-based, Hepacivirus hominis; settings: genotype 1a H77, Huh-7, 72 h
[3] = Cytotoxicity against human MT4 cells after 5 days by Cell Titre Glo assay; type: cell-based
[4] = Fraction unbound in cell culture medium at 2 uM at pH 7.4 by equilibrium dialysis method; type: ADME
[5] = Mean residence time in Sprague-Dawley rat at 1 mg/kg, iv; type: ADME, organism-based; design: dose 1 mg/kg, route intravenous; settings: in vivo
Hepatitis C virus [6] = test: Selectivity ratio of EC50 for HCV genotype 1b harboring NS5B polymerase M423T mutant to EC50 for HCV genotype 1b harboring wild type NS5B polymerase; type: functional, Hepacivirus hominis
Hepatitis C virus [7] = test: Antiviral activity against HCV genotype 1b harboring NS5B polymerase M423T mutant infected in human HuH7-Lunet cells by luciferase reporter gene assay; type: functional, organism-based, Hepacivirus hominis; settings: Huh-7
Hepatitis C virus [8] = test: Antiviral activity against HCV genotype 1b harboring wild type NS5B polymerase infected in human HuH7-Lunet cells by luciferase reporter gene assay; type: functional, organism-based, Hepacivirus hominis; settings: Huh-7
[9] = Lipophilicity, log D of the compound by chromatography; type: physicochemical
[10] = Mean residence time in Sprague-Dawley rat at 0.5 mg/kg, iv; type: ADME, organism-based; design: dose 0.5 mg/kg, route intravenous; settings: in vivo
Hepatitis C virus [11] = test: Antiviral activity against Hepatitis C virus H77 genotype 1a infected in human HuH7 cells assessed as plasma adjusted antiviral potency after 72 hrs by luciferase reporter gene assay; type: functional, organism-based, Hepacivirus hominis; settings: genotype 1a H77, Huh-7, Plasma
[12] = Intrinsic cytotoxicity against human MT4 cells after 5 days by Cell Titre Glo assay; type: cell-based

Row | SMILES | EC50 (Hepatitis C virus [1]) [nM] | EC50 (Hepatitis C virus [2]) [nM] | CC50 at 120 h [3] [nM] | fraction unbound at 2 µM [4] | MRT [5] [h] | Ratio EC50 (Hepatitis C virus [6]) | EC50 (Hepatitis C virus [7]) [nM] | EC50 (Hepatitis C virus [8]) [nM] | chromatographic logD [9] | MRT [10] [h] | EC50 (Hepatitis C virus [11]) [nM] | CC50 at 120 h [12] [nM]
1 | CON=C1CCC(N(c2cc(C#CC(C)(C)C)sc2C(=O)O)C(=O)[C@H]2CC[C@H](C)CC2)CC1 (some centres undefined) | 88 | 6.1 | > 20000 | 0.07 |  |  |  |  |  |  |  | 
2 | CC(C)N(C(=O)C1CCCCC1)c1cc(C#CC(C)(C)C)sc1C(=O)O | 2800 | 500 | > 20000 | 0.18 |  |  |  |  |  |  |  | 
3 | CC(C)N(c1cc(C#CC(C)(C)C)sc1C(=O)O)C(=O)[C@H]1CC[C@H](CF)CC1 | 169 | 31 | > 20000 | 0.18 |  |  |  |  |  |  |  | 
4 | CC(C)(C)C#Cc1cc(N(C(=O)[C@H]2CC[C@H](C)CC2)[C@H]2CC[C@H](Oc3nccs3)CC2)c(C(=O)O)s1 | 84 | 1.5 | > 20000 |  | 2.8 |  |  |  |  |  |  | 
5 | CC1=CC[C@H](C(=O)N(c2cc(C#CC(C)(C)C)sc2C(=O)O)C(C)C)CC1 | 31 | 2.2 | > 20000 | 0.07 |  | 5 | 40 | 8 |  |  |  | 
6 | CC1=CC[C@@H](C(=O)N(c2cc(C#CC(C)(C)C)sc2C(=O)O)C(C)C)CC1 | 45 | 3.7 | > 20000 | 0.08 |  |  |  |  |  |  |  | 
7 | CC(C)(C)C#Cc1cc(N(C(=O)[C@H]2CC[C@H](C)CC2)[C@H]2CC[C@H](OC3CCOC3)CC2)c(C(=O)O)s1 (some centres undefined) | 55 | 4.3 | > 20000 |  |  |  |  |  | 2.3 | 3.5 | 749 | 3070
8 | CC(C)N(C(=O)[C@@H]1CC[C@@H]2C[C@@H]2CC1)c1cc(C#CC(C)(C)C)sc1C(=O)O | 1620 | 88 | > 20000 | 0.05 |  |  |  |  |  |  |  | 
9 | CC(C)(C)C#Cc1cc(N(C(=O)[C@H]2CC[C@H](C)CC2)[C@H]2C[C@@H](Oc3cccnc3)C2)c(C(=O)O)s1 | 156 | 6.4 | > 20000 | 0.04 |  |  |  |  |  |  |  | 
10 | CC(C)N(C(=O)C1CCCCCC1)c1cc(C#CC(C)(C)C)sc1C(=O)O | 2020 | 225 | > 20000 | 0.11 |  |  |  |  |  |  |  | 
11 | CCC[C@]1(CC(=O)O)OCCc2c1[nH]c1c(C)ccc(C#N)c21 |  |  | > 20000 |  |  |  |  |  |  |  |  | 
12 | CC(C)(C#Cc1cc(N(C(=O)[C@H]2CC[C@H](C)CC2)[C@H]2CC[C@H](Oc3ccc(O)nn3)CC2)c(C(=O)O)s1)C(F)(F)F | 51 | 4.9 | > 20000 |  |  |  |  |  |  |  | 516 | 
13 | CC(C)N(C(=O)C1CCC(F)(F)CC1)c1cc(C#CC(C)(C)C)sc1C(=O)O | 32100 | 12800 | > 20000 | 0.4 |  |  |  |  |  |  |  | 
14 | C[C@@H]1CC[C@@H](C(=O)N(c2cc(C#CC(C)(C)C)sc2C(=O)O)[C@H]2CC[C@H](OC3CCOC3)CC2)[C@@H](O)C1 (some centres undefined) |  | 2 | > 20000 |  |  |  |  |  | 2.2 | 1.9 | 138 | 11600
15 | C[C@@H](CCOc1cccnc1)N(c1cc(C#CC(C)(C)C)sc1C(=O)O)C(=O)[C@H]1CC[C@H](C)CC1 | 102 | 2.4 | > 20000 | 0.02 |  |  |  |  |  |  |  | 
16 | CC(C)(C#Cc1cc(N(C(=O)[C@H]2CC[C@H](C)CC2)[C@H]2CC[C@H](OC3CCOC3)CC2)c(C(=O)O)s1)CCO (some centres undefined) |  | 6.1 | > 20000 |  |  |  |  |  | 1.6 | 0.4 | 167 | 31300
17 | CC(C)(C)C#Cc1cc(N(C(=O)[C@H]2CC[C@H](C)CC2)[C@H]2CC[C@H](OC3CCOCC3)CC2)c(C(=O)O)s1 |  | 2.4 | > 20000 |  |  |  |  |  | 2.4 |  | 1830 | 1990
18 | CC(C)N(c1cc(C#CC(C)(C)C)sc1C(=O)O)C(=O)[C@H]1CC[C@H](Cl)CC1 | 315 | 44 | > 20000 | 0.14 |  |  |  |  |  |  |  | 
19 | CC(C)(C)C#Cc1cc(N(C(=O)[C@H]2CC[C@H](C)CC2)[C@H]2CC[C@](O)(CO[C@H]3CCOC3)CC2)c(C(=O)O)s1 |  | 2.2 | > 20000 |  |  | 4 | 47 | 12 | 2.4 | 3.8 | 208 | 8980
